Like-named read-outs stand apart in the source and are kept apart here.

The target in data set [1] is T1, C334ACYP101 (Pseudomonas putida, UniProt P00183, C335A). The format is binding. As to conditions: for K4 apparent equilibrium constant: product (P) binding to ES; for K4 apparent equilibrium constant / K2 apparent equilibrium constant: pH 7.4, 24°C; for K2 apparent equilibrium constant: product binding to E; for K1K4: product of constants, ESP formed via ES.
For data set [2], the system named is CYP2C9. As to conditions: cited from earlier work.
In data set [3] the test system is CYP73As. As to conditions: cinnamate hydroxylation; cited from earlier work.
The subject of data set [4] is CYPC21 (steroid C-21 hydroxylase of bovine adrenocortical microsomes). As to conditions: low spin to five coordinated high spin; cited from earlier work.
Data set [5] has as its system CYP101.
The target in data set [6] is T1, C334ACYP101. As to the kind of experiment: biochemical. The format is binding.
The target in data set [7] is T1, C334ACYP101. The data set is described as follows: biochemical. The format is binding. The source holds these as a separate data set.
Data set [8] has as its system CYP2B4. To be noted: cited from earlier work.
Data set [9] deals with T2, CYP2B4 (Oryctolagus cuniculus, UniProt P00178). As to conditions: pH 7.4.
In data set [10] the target is T2, CYP2B4.
Data set [11] addresses T2, CYP2B4. As to conditions: cited from earlier work.
Data set [12] relates to CYP2C9. To be noted: cited from earlier work. This is another data set of the same source.
Data set [13] deals with CYP3A4. To be noted: cited from earlier work.

T1 sequence (P00183 whole entry C335A): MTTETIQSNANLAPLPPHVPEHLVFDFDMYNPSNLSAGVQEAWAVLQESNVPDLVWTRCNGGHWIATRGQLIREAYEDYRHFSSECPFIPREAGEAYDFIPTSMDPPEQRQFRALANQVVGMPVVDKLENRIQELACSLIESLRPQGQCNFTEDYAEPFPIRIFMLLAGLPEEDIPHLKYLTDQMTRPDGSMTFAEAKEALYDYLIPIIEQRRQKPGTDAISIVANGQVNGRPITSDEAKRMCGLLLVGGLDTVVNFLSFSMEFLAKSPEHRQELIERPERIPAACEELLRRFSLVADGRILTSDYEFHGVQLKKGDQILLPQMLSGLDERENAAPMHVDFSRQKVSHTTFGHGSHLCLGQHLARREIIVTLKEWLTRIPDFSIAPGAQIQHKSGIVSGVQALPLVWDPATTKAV
T2 sequence (P00178 whole entry): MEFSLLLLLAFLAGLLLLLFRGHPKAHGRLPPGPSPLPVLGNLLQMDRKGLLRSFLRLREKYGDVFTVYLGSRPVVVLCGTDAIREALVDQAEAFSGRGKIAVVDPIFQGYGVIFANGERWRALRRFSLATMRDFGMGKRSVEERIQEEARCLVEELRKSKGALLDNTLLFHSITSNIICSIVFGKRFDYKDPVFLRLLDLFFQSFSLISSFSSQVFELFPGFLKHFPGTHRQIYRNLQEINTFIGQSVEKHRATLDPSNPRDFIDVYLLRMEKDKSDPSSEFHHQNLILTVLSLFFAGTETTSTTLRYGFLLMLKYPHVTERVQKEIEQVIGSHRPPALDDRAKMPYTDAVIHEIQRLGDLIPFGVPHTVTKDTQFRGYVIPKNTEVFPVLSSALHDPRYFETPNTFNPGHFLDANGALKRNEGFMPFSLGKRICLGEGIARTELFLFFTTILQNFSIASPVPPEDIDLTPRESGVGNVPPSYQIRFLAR

Take `CC1(C)[C@H]2CC(=O)[C@]1(C)C[C@H]2O` [5exo OH Camphor, 5-exo-OH camphor]: the “K4 apparent equilibrium constant” value was “.012 ± .001 µM⁻¹” in data set [1] (OHcam 38 uM), “.0078 ± .0005 µM⁻¹” in data set [1] (OHcam 66 uM), “.0063 ± .0004 µM⁻¹” in [1] (OHcam 100 uM) and “.0039 ± .0003 µM⁻¹” in data set [1] (OHcam 133 uM). In addition, the “K2 apparent equilibrium constant” value in data set [1] (OHcam 38 uM) was “.039 ± .002 µM⁻¹”; in data set [1] (OHcam 66 uM) it was “.030 ± .004 µM⁻¹”; in data set [1] (OHcam 100 uM), “.034 ± .002 µM⁻¹”; in data set [1] (OHcam 133 uM), “.034 ± .002 µM⁻¹”. Further, the K1K4 result in data set [1] (OHcam 38 uM) was “.0080”; in data set [1] (OHcam 66 uM), “.0049”; in data set [1] (OHcam 100 uM), “.0043”; in data set [1] (OHcam 133 uM) it was “.0024”.

As for `Nc1ccc(S(=O)(=O)c2ccc(NO)cc2)cc1` [N-hydroxydapsone], in data set [2], the “effect on coupling efficiency of flurbiprofen hydroxylation” value is listed as “enhanced” and the “effect on flurbiprofen hydroxylation” value was “stimulating”.

On to `O=C(O)/C=C/c1ccc(O)cc1` [coumerate], for which the “product inhibition of substrate hydroxylation” value in [3] is on record as “not observable”.

For the compound `C[C@]12CCC(=O)C=C1CC[C@@H]1[C@@H]2CC[C@]2(C)C(=O)CC[C@@H]12` [androstenedione], the “Type I spectral change” value in [4] is “elicited”.

In the case of `CC12CCC(CC1=O)C2(C)C` (stereo not drawn) [Cam, Camphor], the “peak to trough ratio of Type I difference spectrum” value in data set [5] is around 0.87. Also, the results for the Kd in data set [6] (KD^APP Kinetic), in [6] (KD^APP Transient) and in data set [7] were 6.2 ± 0.9 µM, 5 ± 0.5 µM and 4.8 ± 0.8 µM, respectively.

Take `O=C1C2CC3CC(C2)CC1C3` [2 Adone, 2-Adamantanone]: the Kd came out at 6 ± 2 µM in data set [6] (KD^APP Transient, C334ACYP101, 10-13°C jump, 0.05 M K-PO4 buffer + 0.1 M KCl) and 2.9 ± 0.2 µM in data set [7].

On to `C[C@H](Cc1ccccc1)NCc1ccccc1` [DesBNZ, desmethylbenzphetamine], for which, in data set [8], the “strength of hetero atom binding to Site II (L6)” value was “as strongly as water”. Moreover, the Kd in data set [9] was determined as 701 ± 150 µM. Also, the “binding of product formed in situ” value in [10] is “remains bound”. For the same compound, in data set [11], the “time of Site II re-ligation to form the final Type II complex (slow phase)” value was at most 20 milliseconds.

Consider `CC(C(=O)O)c1ccc(-c2ccccc2)c(F)c1` (stereo not drawn) [Flurbiprofen, flurbiprofen], for which, in [12], the “Type I spectral change in the CYP2C9” value is “elicits”.

As to `O=c1cc(-c2ccccc2)oc2c1ccc1ccccc12` [α-NF, α-naphthoflavone], the “effect on metabolism of aflatoxin B1 by CYP3A4” value in data set [13] was “activates”.

`C[C@]12CC[C@H]3[C@@H](CCC4=CC(=O)CC[C@@]43C)[C@@H]1CC[C@@H]2O` [testosterone]: the “effect on metabolism of midazolum by CYP3A4” value in data set [13] was “inhibits”.

As for `COc1cc2c(c3oc(=O)c4c(c13)CCC4=O)[C@@H]1C=CO[C@@H]1O2` [aflatoxin B1], the “effect on metabolism of α-NF by CYP3A4” value in data set [13] is given as “has no effect”.

`Nc1ccc(S(=O)(=O)c2ccc(N)cc2)cc1` [dapsone]: the “Type I spectral change in the CYP2C9” value in data set [12] (static spectroscopy) is given as “does not elicit”. Besides, in data set [2], the “effect on coupling efficiency of flurbiprofen hydroxylation” value is listed as “enhanced” and the “effect on flurbiprofen hydroxylation” value was “stimulating”.

These data come from publication PMC2826162 (Expert opinion on drug metabolism & toxicology, 2010).
